Results: patent US20220089578A1, “COMPOUNDS AS GLP-1R AGONISTS” (Terns Pharmaceuticals, Inc., priority 2020, published 2022)

Molecular target: human GLP-1R (Homo sapiens, UniProt P43220)
Assay: GLP-1R Cell Assay 2: CHO-K1_hGLP-1Rlow_clone10 cells, LANCE Ultra cAMP TR-FRET assay
Type: cell-based
Parameters: expressed in transfected cells
Conditions: Table 3, percent activation relative to control GLP-1 peptide agonist
Experimental: Stable cell lines expressing high and low GLP-1R surface expression were generated in CHO-K1 cells transfected (Fugene 6) with a puromycin selectable DNA plasmid encoding human GLP-1R receptor (accession number: NM_002062.5) under control of an EF1A promoter. Transfected cells were seeded into 24-well plates (9,000 cells/well) containing complete medium and incubated in a humidified incubator at 37° C. with 5% carbon dioxide. After overnight incubation, medium was replaced with complete medium supplemented with puromycin (6 μg/mL) and refreshed every 2-3 days to select for stably transfected cells. Individual pools of selected cells were expanded prior to analysis for responsiveness to GLP-1 control peptide using a TR-FRET assay to detect cAMP (LANCE Ultra cAMP Assay, Perkin Elmer). Briefly, cells were collected in Versene solution, plated in 384-well plates (1,000 cells/well) and combined with serially diluted GLP-1R control peptide (10 nL) using an acoustic dispenser (ECHO). Plates were incubated for 30 minutes at 25° C. prior to the addition of EU-cAMP tracer (5 μL) and Ulight-anti-cAMP (5 μL) reagents to each well, followed by 15 minutes incubation at 25° C. TR-FRET signal was detected using an EnVision Multimode Plate Reader (excitation=320 nm; emission=615 and 655 nm). Dose-response curves were used to generate EC50 values as a measure of responsiveness to the GLP-1R control peptide. Selected cell lines were monitored for responsiveness over multiple passages to ensure stability. […] Briefly, GLP-1R expression was analyzed by flow cytometry using a fluorescein-labeled Exendin-4 peptide fluorescent probe (FLEX). Cells were harvested in Versene solution and washed 3-times with PBS+0.5% BSA before incubation with FLEX reagent (10 μM) for 2 hours at room temperature. After incubation, cells were washed 3-times in PBS+0.5% BSA before final resuspension in PBS prior to analysis by flow cytometry to measure FLEX mean fluorescence intensity (MFI) as a measure of GLP-1R expression on the cell surface.
For compound testing in the CHO-K1_hGLP-1Rlow_clonel0 cell lines, cells were seeded in 384-well plates (1,000 cells/well). Test compounds were serially diluted in DMSO (10-point, 3-fold dilution), added to wells using an ECHO dispenser (10 nL/well) and plates were centrifuged for 1 min and agitated for 2 min at room temperature prior to 30-minute incubation at 25° C. After incubation, Eu-cAMP (5 p,L) and Ulight-anti-cAMP (5 μL) reagents were added to each well, followed by centrifugation for 1 minute, agitation for 2 minutes at room temperature, and final incubation of the plates at 25° C. for 15 minutes. Plates were read using an EnVision microplate reader (excitation=320 nm; emission=615 and 655 nm). Dose-response curves were generated from duplicate wells based on percent activation calculated relative to a control GLP-1 peptide agonist that was run in parallel. EC50 values were determined by fitting percent activation as a function of compound concentration using the Hill equation (XLfit).

human GLP-1R, sequence (P43220 24-463): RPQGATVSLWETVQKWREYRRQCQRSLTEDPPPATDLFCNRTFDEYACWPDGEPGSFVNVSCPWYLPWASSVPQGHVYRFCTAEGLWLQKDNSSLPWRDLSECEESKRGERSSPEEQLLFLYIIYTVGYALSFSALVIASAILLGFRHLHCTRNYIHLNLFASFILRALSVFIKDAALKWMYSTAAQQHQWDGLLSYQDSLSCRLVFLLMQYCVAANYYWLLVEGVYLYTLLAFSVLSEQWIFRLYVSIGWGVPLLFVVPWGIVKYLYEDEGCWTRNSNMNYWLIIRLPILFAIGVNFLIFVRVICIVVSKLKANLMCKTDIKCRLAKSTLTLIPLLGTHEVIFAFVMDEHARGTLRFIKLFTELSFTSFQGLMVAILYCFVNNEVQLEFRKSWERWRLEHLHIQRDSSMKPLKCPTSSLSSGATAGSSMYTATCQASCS

| Structure (SMILES) | EC50 [nM] |
| --- | --- |
| CCn1cncc1Cn1c(CN2CC[C@@]3(c4nccc(OCc5ccc(C#N)cc5F)n4)C[C@H]3C2)nc2ccc(C(=O)O)cc21 [Compound 185-P1, 2-(((1R,6S)-6-(4-((4-cyano-2-fluorobenzyl)oxy)pyrimidin-2-yl)-3-azabicyclo[4.1.0]heptan-3-yl)methyl)-1-((1-ethyl-1H-imidazol-5-yl)methyl)-1H-benzo[d]imidazole-6-carboxylic acid] | 1.69 |
| CCn1ccnc1Cn1c(CN2CCC(c3cccc(N4CCc5cc(C#N)cc(F)c5C4)n3)CC2)nc2ccc(C(=O)O)cc21 [Compound 171, 2-((4-(6-(6-cyano-8-fluoro-3,4-dihydroisoquinolin-2(1H)-yl)pyridin-2-yl)piperidin-1-yl)methyl)-1-((1-ethyl-1H-imidazol-2-yl)methyl)-1H-benzo[d]imidazole-6-carboxylic acid] | 1410 |
| CCn1cncc1Cn1c(CN2CC[C@@]3(c4nccc(N5CCc6cc(C#N)cc(F)c6C5)n4)C[C@H]3C2)nc2ccc(C(=O)O)cc21 [Compound 186-P1] | 646 |
| CCn1cncc1Cn1c(CN2CCC(c3cccnc3OCc3ccc(C(N)=O)cc3F)CC2)nc2ccc(C(=O)O)cc21 [Compound 170, 2-((4-(2-((4-carbamoyl-2-fluorobenzyl)oxy)pyridin-3-yl)piperidin-1-yl)methyl)-1-((1-ethyl-1H-imidazol-5-yl)methyl)-1H-benzo[d]imdiazole-6-carboxylic acid] | 120 |
| CCn1nncc1Cn1c(CN2CCC(c3cccc(OCc4nc5c(F)cc(C#N)cc5s4)n3)CC2)nc2ccc(C(=O)O)cc21 [Compound 178, 2-((4-(6-((6-cyano-4-fluorobenzo[d]thiazol-2-yl)methoxy)pyridin-2-yl)piperidin-1-yl)methyl)-1-((1-ethyl-1H-1,2,3-triazol-5-yl)methyl)-1H-benzo[d]imidazole-6-carboxylic acid] | 7.56 |
| CCn1cccc1Cn1c(CN2CCC(c3cccc(OCc4nc5c(F)cc(C#N)cc5s4)n3)CC2)nc2ccc(C(=O)O)cc21 [Compound 180, 2-((4-(6-((6-cyano-4-fluorobenzo[d]thiazol-2-yl)methoxy)pyridin-2-yl)piperidin-1-yl)methyl)-1-((1-ethyl-1H-pyrrol-2-yl)methyl)-1H-benzo[d]imidazole-6-carboxylic acid] | 215 |
| CCn1cncc1Cn1c(CN2CC[C@]3(c4nccc(N5CCc6cc(C#N)cc(F)c6C5)n4)C[C@@H]3C2)nc2ccc(C(=O)O)cc21 (single isomer, unassigned) [Compound 186-P2] | > 10000 |
| CCn1cncc1Cn1c(CN2CC[C@]3(c4nccc(OCc5ccc(C#N)cc5F)n4)C[C@@H]3C2)nc2ccc(C(=O)O)cc21 [Compound 185-P2, 2-(((1S,6R)-6-(4-((4-cyano-2-fluorobenzyl)oxy)pyrimidin-2-yl)-3-azabicyclo[4.1.0]heptan-3-yl)methyl)-1-((1-ethyl-1H-imidazol-5-yl)methyl)-1H-benzo[d]imidazole-6-carboxylic acid] | 18.1 |
| CCn1cncc1Cn1c(CN2CCC(c3cccnc3OCc3ccc(C#N)cc3F)CC2)nc2ccc(C(=O)O)cc21 [Compound 169, 2-((4-(2-((4-cyano-2-fluorobenzyl)oxy)pyridin-3-yl)piperidin-1-yl)methyl)-1-((1-ethyl-1H-imidazol-5-yl)methyl)-1H-benzo[d]imidazole-6-carboxylic acid] | 1.14 |
| N#Cc1cc(F)c2c(c1)CCN(c1cccc(C3CCN(Cc4nc5ccc(C(=O)O)cc5n4Cc4ncco4)CC3)n1)C2 [Compound 172, 2-((4-(6-(6-cyano-8-fluoro-3,4-dihydroisoquinolin-2(1H)-yl)pyridin-2-yl)piperidin-1-yl)methyl)-1-(oxazol-2-ylmethyl)-1H-benzo[d]imidazole-6-carboxylic acid] | 119 |

More lines, now with the values ahead:

| EC50 [nM] | Structure (SMILES) |
| --- | --- |
| 14.5 | O=C(O)c1ccc2nc(CN3CCC(c4cccc(OCc5coc6c(C(F)(F)F)cccc56)n4)CC3)n(C[C@@H]3CCO3)c2c1 [Compound 175, (S)-1-(oxetan-2-ylmethyl)-2-((4-(6-((7-(trifluoromethyl)benzofuran-3-yl)methoxy)pyridin-2-yl)piperidin-1-yl)methyl)-1H-benzo[d]imidazole-6-carboxylic acid] |
| > 10000 | O=C(O)c1ccc2nc(CN3CCC(c4cccc(Oc5ccccc5)n4)CC3)n(C[C@@H]3CCO3)c2c1 [Compound 183, (S)-1-(oxetan-2-ylmethyl)-2-((4-(6-phenoxypyridin-2-yl)piperidin-1-yl)methyl)-1H-benzo[d]imidazole-6-carboxylic acid] |
| 36.6 | O=C(O)c1ccc2nc(CN3CCC(c4cccc(OCc5nc(C(F)(F)F)cs5)n4)CC3)n(C[C@@H]3CCO3)c2c1 [Compound 179, (S)-1-(oxetan-2-ylmethyl)-2-((4-(6-((4-(trifluoromethyl)thiazol-2-yl)methoxy)pyridin-2-yl)piperidin-1-yl)methyl)-1H-benzo[d]imidazole-6-carboxylic acid] |
| 13.2 | N#Cc1cccc2c(COc3cccc(C4CCN(Cc5nc6ccc(C(=O)O)cc6n5C[C@@H]5CCO5)CC4)n3)csc12 [Compound 187, (S)-2-((4-(6-((7-cyanobenzo[b]thiophen-3-yl)methoxy)pyridin-2-yl)piperidin-1-yl)methyl)-1-(oxetan-2-ylmethyl)-1H-benzo[d]imidazole-6-carboxylic acid] |
| 22.8 | O=C(O)c1ccc2nc(CN3CCC(c4cccc(OCc5nc(C6CC6)cs5)n4)CC3)n(C[C@@H]3CCO3)c2c1 [Compound 181, (S)-2-((4-(6-((4-cyclopropylthiazol-2-yl)methoxy)pyridin-2-yl)piperidin-1-yl)methyl)-1-(oxetan-2-ylmethyl)-1H-benzo[d]imidazole-6-carboxylic acid] |
| 6.73 | O=C(O)c1ccc2nc(CN3CCC(c4cccc(OCc5cc6cccc(C(F)(F)F)c6o5)n4)CC3)n(C[C@@H]3CCO3)c2c1 [Compound 177, (S)-1-(oxetan-2-ylmethyl)-2-((4-(6-((7-(trifluoromethyl)benzofuran-2-yl)methoxy)pyridin-2-yl)piperidin-1-yl)methyl)-1H-benzo[d]imidazole-6-carboxylic acid] |
| 63.4 | O=C(O)c1ccc2nc(CN3CCC(c4cccc(OCc5csc6c(C(F)(F)F)cccc56)n4)CC3)n(C[C@@H]3CCO3)c2c1 [Compound 174, (S)-1-(oxetan-2-ylmethyl)-2-((4-(6-((7-(trifluoromethyl)benzo[b]thiophen-3-yl)methoxy)pyridin-2-yl)piperidin-1-yl)methyl)-1H-benzo[d]imidazole-6-carboxylic acid] |
| 33.9 | O=C(O)c1ccc2nc(CN3CCC(c4cccc(OCc5coc6c(C(F)(F)F)cc(Br)cc56)n4)CC3)n(C[C@@H]3CCO3)c2c1 [Compound 182, (S)-2-((4-(6-((5-bromo-7-(trifluoromethyl)benzofuran-3-yl)methoxy)pyridin-2-yl)piperidin-1-yl)methyl)-1-(oxetan-2-ylmethyl)-1H-benzo[d]imidazole-6-carboxylic acid] |
| 13.2 | N#Cc1cccc2c(COc3cccc(C4CCN(Cc5nc6ccc(C(=O)O)cc6n5C[C@@H]5CCO5)CC4)n3)csc12 [Compound 173, (S)-2-((4-(6-((7-cyanobenzo[b]thiophen-3-yl)methoxy)pyridin-2-yl)piperidin-1-yl)methyl)-1-(oxetan-2-ylmethyl)-1H-benzo[d]imidazole-6-carboxylic acid] |
| 1590 | CC1=NCC(Cn2c(CN3CCC(c4cccc(OCc5ccc(C#N)cc5F)n4)CC3)nc3ccc(C(=O)O)cc32)O1 (single isomer, unassigned) [Compound 176, 2-((4-(6-((4-cyano-2-fluorobenzyl)oxy)pyridin-2-yl)piperidin-1-yl)methyl)-1-((2-methyl-4,5-dihydrooxazol-5-yl)methyl)-1H-benzo[d]imidazole-6-carboxylic acid] |
